This note sets out measurements from patent US20220054477A1, “INDUCTION OF SUSTAINED LOCAL INFLAMMATION” (Ascendis Pharma Oncology Division A/S, priority 2019, published 2022).

Marks after values point to notes of the source that are not given here.

The test system of assay [1] is Ccl4. The assay is described as follows: PBMC gene expression (qPCR, 6 hours post-treatment): Ccl4 (Example 17). Type of assay: in vivo, BALB/C mice. On the procedure: (§1) Hydrogels were administered as suspensions in PTP buffer. […] Tumors were excised, weighed and snap frozen.
(§2) For PBMC isolations, approximately 600 μl of whole blood was collected via cardiac puncture. The collected whole blood from each individual mouse was diluted with a 1:1 ratio of pre-warmed PBS supplemented with 2% Fetal Bovine Serum (FBS). Then an equal volume of Histopaque-1083 was added to a new sterile 15 mL conical tube, where the diluted whole blood was layered over the Histopaque-1083. The mixture was then centrifuged at 400 g for 30 minutes. […]
(§3) Lysates from untreated control samples and 6 hour treated samples were thawed and RNA was isolated using the RNeasy Mini Kit (QIAGEN) following manufacturer's recommendations. […] RNA concentrations were measured using a NanoDrop (ThermoFisher) and then adjusted to […] with RNase-free water. RNA quality was assessed using a NanoDrop (ThermoFisher). […] 200 ng of cDNA was used for quantitative PCR using the RT^2 SYBR Green ROX qPCR Master mix (2×) kit (QIAGEN) following manufacturer's recommendations. […]
(§4) Cycle thresholds (CT) were collected using a 384-well platform ABI-7900H real-time qPCR system (Applied Biosystems). […] 2^ΔΔCT values were calculated with the following formula: […]
(§5) For each gene, 3 technical replicates were analyzed per biological replicate. Undetermined technical replicate CT values were recorded as zero ΔCT values. […]

Assay [2] relates to TNFα. The assay can be described thus: In vivo cytokine induction, plasma cytokine levels: TNFα (Example 12). Set-up: species or system BALB/C mice. The following applies: single intratumoral dose. Here is the method:
(§6) Mice were subcutaneously implanted with 3×10^5 CT26 tumor cells in the left and right flanks. […] Hydrogels were administered as suspensions in PBST buffer. K2 EDTA-preserved blood samples were collected by retro-orbital bleed at various time points following drug administration and plasma was isolated following centrifugation at 2000×g for 5 minutes at 4° C. and frozen. Plasma samples were stored at −80° C. Plasma was thawed and undiluted samples were assessed for cytokine levels using the 36-Plex Mouse ProcartaPlex™ Cytokine Panel 1A (ThermoFisher Scientific) following manufacturer's recommendations. Cytokines were measured on the Bio-Plex 200 (BioRad) following kit instructions. For sample values below or at the lower limit of quantitation (LLOQ) of the assay, a value of 0.01 pg/mL was instead used in determining mean cytokine concentrations.

Assay [3] has as its system IFNγ. The assay is described as follows: In vivo cytokine induction, plasma cytokine levels: IFNγ (Example 12). The following applies: single intratumoral dose, values at or below LLOQ set to 0.01. Set-up: species or system BALB/C mice. Here is the method: as §6
For assay [4], the system named is Ly-6C+ antigen presenting cells. The assay can be described thus: Flow cytometry of tumor draining lymph nodes: frequency of Ly-6C+ antigen presenting cells of non-T cells (Example 15). Type of assay: in vivo, BALB/C mice. The following applies: 7 days after randomization. On the procedure: Hydrogels were administered as suspension in PTP buffer. Some cohorts were further treated with 20 μg human IL-2 (Peprotech, Rocky Hill, N.J.), intraperitoneally (I.P.), twice a day for 5 days. Mice were sacrificed 7 days after randomization (D0). Following sacrifice, tumor draining lymph nodes were isolated from both flanks and were dissociated mechanically to generate a single cell suspension at a cell concentration of 1×10^6 cells per sample. Cell suspensions were centrifuged at 300 g for 5 minutes. Supernatants were discarded and cells were resuspended in FACS buffer with 1 μg/ml Fc-Block and incubated at 4° C. for 10 minutes in the dark. Surface marker antibody mixtures (antibody concentration: 10 μg/mL) in FACS buffer were added to each sample and samples were incubated in the dark at 4° C. for 30 minutes. Cells were centrifuged at 300 g for 5 minutes and supernatants were discarded. Cells were washed and then resuspended with FACS buffer before cytometer collection.
After collection, FACS data was analyzed using FlowJo Version 10.6.1. Compensation was digitally adjusted using single antibody-stained beads. Samples with less than 90% viability, as determined by LiveDead cell staining, were excluded from the analysis. […]
(In flow cytometry, cells or beads pass a laser one at a time.)

Assay [5] concerns Il1a. The assay can be described thus: PBMC gene expression (qPCR, 6 hours post-treatment): Il1a (Example 17). Type of assay: in vivo, BALB/C mice. Here is the method: as §1, §2, §3, §4, §5
A general note: Quantitative PCR measures a nucleic acid by following its amplification.

In the case of Resiquimod [Compound 4], the “Ccl4 Mean (2^ΔΔCT)” value in assay [1] is given as 1.31. Moreover, the “Ccl4 Fold change (4/13i)” value in assay [1] (ratio of 4 to 13i) is given as 1.74. Also, the “TNFα plasma level, Mean” value in assay [2] (1 h post-treatment) amounted to 830.84 pg/mL; in assay [2] (3 h post-treatment) it was 136.25 pg/mL; in assay [2] (6 h post-treatment) it was 35.49 pg/mL; in assay [2] (10 h post-treatment), 43.32 pg/mL; in assay [2] (24 h post-treatment), 9.74 pg/mL. The “IFNγ plasma level, Mean” value was 4.04 pg/mL in assay [3] (1 h post-treatment); 15.49†, ‡ pg/mL in assay [3] (3 h post-treatment); 40.72†, ‡ pg/mL in assay [3] (6 h post-treatment); 28.19†, ‡ pg/mL in assay [3] (10 h post-treatment); 2.38 pg/mL in assay [3] (24 h post-treatment). Further, the “Frequency of Ly-6C+ antigen presenting cells of non-T cells, Mean” value worked out at 2.5% in assay [4] (injected right flank tumor) and 7.8% in assay [4] (uninjected left flank tumor). Besides, in assay [5], the “Il1a Mean (2^ΔΔCT)” value stood at 0.41. The “Il1a Fold change (4/13i)” value in assay [5] (ratio of 4 to 13i) turned out to be 1.78.
